According to PubChem BioAssay AID248 (DTP/NCI, 2004):
Toxic doses and inconclusive results are not listed. Cut-off read from the data, not from the text of the source: active = T/C of 150% or more; inactive = T/C below 125%.

System: L1210 leukemia ip in BDF1 mice, survival T/C
Test: NCI In Vivo Anticancer Drug Screen. Data for tumor model L1210 Leukemia (intraperitoneal) in B6D2F1 (BDF1) mice
Settings: endpoint: mean survival time, higher = longer survival
Summary of the method: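 Read-out is survival time, reported as the treated-group measurement over the vehicle-control measurement.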

[1] = dose: 100.0 mg/kg/injection, schedule: Q01DX009 (ip), vehicle: Klucel (hydroxypropylcellulose) (HPC)
[2] = dose: 100.0 mg/kg/injection, schedule: Q04DX003 (ip), vehicle: saline with Tween-80
[3] = dose: 200.0 mg/kg/injection, schedule: Q01DX009 (ip), vehicle: Klucel (hydroxypropylcellulose) (HPC)
[4] = dose: 200.0 mg/kg/injection, schedule: Q04DX003 (ip), vehicle: saline with Tween-80
[5] = dose: 400.0 mg/kg/injection, schedule: Q04DX003 (ip), vehicle: saline with Tween-80
[6] = dose: 100.0 mg/kg/injection, schedule: Q04DX003 (ip), vehicle: Klucel (hydroxypropylcellulose) (HPC)
[7] = dose: 200.0 mg/kg/injection, schedule: Q04DX003 (ip), vehicle: Klucel (hydroxypropylcellulose) (HPC)
[8] = dose: 400.0 mg/kg/injection, schedule: Q04DX003 (ip), vehicle: Klucel (hydroxypropylcellulose) (HPC)
[9] = dose: 100.0 mg/kg/injection, schedule: Q01DX009 (ip), vehicle: saline with Tween-80
[10] = dose: 100.0 mg/kg/injection, schedule: Q01DX009 (ip), vehicle: saline
[11] = dose: 100.0 mg/kg/injection, schedule: Q04DX003 (ip), vehicle: saline
[12] = dose: 200.0 mg/kg/injection, schedule: Q04DX003 (ip), vehicle: saline
[13] = dose: 400.0 mg/kg/injection, schedule: Q04DX003 (ip), vehicle: saline
[14] = dose: 100.0 mg/kg/injection, schedule: Q01DX001 (ip), vehicle: saline
[15] = dose: 200.0 mg/kg/injection, schedule: Q01DX001 (ip), vehicle: saline
[16] = dose: 400.0 mg/kg/injection, schedule: Q01DX001 (ip), vehicle: saline
[17] = dose: 100.0 mg/kg/injection, schedule: Q04DX002 (ip), vehicle: Klucel (hydroxypropylcellulose) (HPC)
[18] = dose: 200.0 mg/kg/injection, schedule: Q04DX002 (ip), vehicle: Klucel (hydroxypropylcellulose) (HPC)
[19] = dose: 400.0 mg/kg/injection, schedule: Q04DX002 (ip), vehicle: Klucel (hydroxypropylcellulose) (HPC)
[20] = dose: 100.0 mg/kg/injection, schedule: Q01DX001 (ip), vehicle: Klucel (hydroxypropylcellulose) (HPC)
[21] = dose: 200.0 mg/kg/injection, schedule: Q01DX001 (ip), vehicle: Klucel (hydroxypropylcellulose) (HPC)

Measured: T/C

Cc1ccc(OCCBr)cc1
inactive: [1] 93 % of control | [2] 100 % of control | [3] 101 % of control | [4] 107 % of control | [5] 98 % of control

O=C(COc1ccccc1)NCCBr
inactive: [1] 96 % of control | [6] 110 % of control | dose: 133.0 mg/kg/injection, schedule: Q04DX003 (ip), vehicle: Klucel (hydroxypropylcellulose) (HPC) 98 % of control | [3] 102 % of control | [7] 98 % of control | dose: 300.0 mg/kg/injection, schedule: Q04DX003 (ip), vehicle: Klucel (hydroxypropylcellulose) (HPC) 98 % of control | dose: 400.0 mg/kg/injection, schedule: Q01DX009 (ip), vehicle: Klucel (hydroxypropylcellulose) (HPC) 95 % of control | [8] 101 % of control

CC1C=NNC1=O (configuration not stated)
inactive: [9] 124 % of control | [10] 115 % of control | [11] 104 % of control | [12] 112 % of control | dose: 300.0 mg/kg/injection, schedule: Q#B X027 (ip), vehicle: saline 89 % of control | [13] 109 % of control

C[n+]1csc2ccccc21
inactive: [14] 108 % of control | [15] 103 % of control | [16] 103 % of control

CCC1(c2ccccc2)C(=O)NC(=O)N(CN2CCOCC2)C1=O (configuration not stated)
inactive: dose: 50.0 mg/kg/injection, schedule: Q01DX009 (ip), vehicle: saline with Tween-80 114 % of control | [9] 93 % of control | dose: 200.0 mg/kg/injection, schedule: Q01DX009 (ip), vehicle: saline with Tween-80 97 % of control

O=C(O)c1cc(Cl)cc(F)c1Cl
inactive: [17] 101 % of control | [18] 105 % of control | [19] 105 % of control

Cc1ccc(S(=O)(=O)Nc2ccc([N+](=O)[O-])cc2)cc1
inactive: [20] 97 % of control | [21] 97 % of control | dose: 400.0 mg/kg/injection, schedule: Q01DX001 (ip), vehicle: Klucel (hydroxypropylcellulose) (HPC) 113 % of control

CCCCC(=O)N1CCC(C)CC1
inactive: dose: 100.0 mg/kg/injection, schedule: Q04DX002 (ip), vehicle: saline 98 % of control | dose: 200.0 mg/kg/injection, schedule: Q04DX002 (ip), vehicle: saline 91 % of control

CC(C)(CNc1ccc(C(=O)O)cc1)[N+](=O)[O-]
inactive: [10] 93 % of control | [11] 95 % of control | dose: 200.0 mg/kg/injection, schedule: Q01DX009 (ip), vehicle: saline 90 % of control | [12] 98 % of control | dose: 400.0 mg/kg/injection, schedule: Q01DX009 (ip), vehicle: saline 87 % of control | [13] 90 % of control

O=CNc1ccc2c(c1)Cc1cc(Cl)ccc1-2
inactive: dose: 30.0 mg/kg/injection, schedule: Q01DX015 (ip), vehicle: carboxymethylcellulose (CMC) 97 % of control | dose: 60.0 mg/kg/injection, schedule: Q01DX015 (ip), vehicle: carboxymethylcellulose (CMC) 106 % of control | dose: 120.0 mg/kg/injection, schedule: Q01DX015 (ip), vehicle: carboxymethylcellulose (CMC) 97 % of control

CC(=O)Nc1ccc(OC(=O)c2cccc([N+](=O)[O-])c2)cc1
inactive: [14] 107 % of control | [15] 101 % of control | [16] 104 % of control

c1nc(SCSc2ncnc3nc[nH]c23)c2[nH]cnc2n1
inactive: [2] 97 % of control | [4] 90 % of control | [5] 90 % of control

CCc1c(CO)cnc(C)c1OP(=O)(O)O
inactive: dose: 100.0 mg/kg/injection, schedule: Q01DX001 (ip), vehicle: carboxymethylcellulose (CMC) 100 % of control | dose: 200.0 mg/kg/injection, schedule: Q01DX001 (ip), vehicle: carboxymethylcellulose (CMC) 96 % of control | dose: 400.0 mg/kg/injection, schedule: Q01DX001 (ip), vehicle: carboxymethylcellulose (CMC) 102 % of control

COCCCN1CC2CCCC1O2 (configuration not stated)
inactive: dose: 50.0 mg/kg/injection, schedule: Q01DX001 (ip), vehicle: saline 91 % of control | [14] 95 % of control | [15] 97 % of control

O=C=Nc1ccc(C(=O)CCl)cc1
inactive: dose: 20.0 mg/kg/injection, schedule: Q01DX009 (ip), vehicle: saline with Tween-80 91 % of control | dose: 40.0 mg/kg/injection, schedule: Q01DX009 (ip), vehicle: saline with Tween-80 91 % of control | dose: 80.0 mg/kg/injection, schedule: Q01DX009 (ip), vehicle: saline with Tween-80 101 % of control | dose: 160.0 mg/kg/injection, schedule: Q01DX009 (ip), vehicle: saline with Tween-80 98 % of control

Nc1nc(N)c(-c2ccccc2)c(C(=O)O)n1
inactive: dose: 50.0 mg/kg/injection, schedule: Q01DX001 (ip), vehicle: Klucel (hydroxypropylcellulose) (HPC) 101 % of control | dose: 50.0 mg/kg/injection, schedule: Q04DX003 (ip), vehicle: Klucel (hydroxypropylcellulose) (HPC) 94 % of control | [20] 95 % of control | [6] 105 % of control | [21] 95 % of control | [7] 105 % of control

CSc1n[nH]c(N=[N+]=[N-])n1
inactive: dose: 100.0 mg/kg/injection, schedule: Q04DX002 (ip), vehicle: saline with Tween-80 104 % of control | dose: 200.0 mg/kg/injection, schedule: Q04DX002 (ip), vehicle: saline with Tween-80 115 % of control | dose: 400.0 mg/kg/injection, schedule: Q04DX002 (ip), vehicle: saline with Tween-80 104 % of control

O=S(=O)(NNS(=O)(=O)c1ccccc1)c1ccccc1
inactive: dose: 100.0 mg/kg/injection, schedule: Q01DX001 (ip), vehicle: saline with Tween-80 101 % of control | dose: 200.0 mg/kg/injection, schedule: Q01DX001 (ip), vehicle: saline with Tween-80 94 % of control | dose: 400.0 mg/kg/injection, schedule: Q01DX001 (ip), vehicle: saline with Tween-80 88 % of control

O=C1OC2(CCNCC2)C(=O)N1c1ccc(F)cc1
inactive: dose: 12.5 mg/kg/injection, schedule: Q01DX001 (ip), vehicle: carboxymethylcellulose (CMC) 104 % of control | dose: 25.0 mg/kg/injection, schedule: Q01DX001 (ip), vehicle: carboxymethylcellulose (CMC) 101 % of control

CC1CCC(C(C)C)/C(=N/S)C1 (configuration not stated)
inactive: dose: 75.0 mg/kg/injection, schedule: Q04DX003 (ip), vehicle: saline 93 % of control | dose: 150.0 mg/kg/injection, schedule: Q04DX003 (ip), vehicle: saline 96 % of control | dose: 300.0 mg/kg/injection, schedule: Q04DX003 (ip), vehicle: saline 104 % of control

CCCCCCC/C=C/c1c(C)[nH]c2ccccc2c1=O
inactive: [6] 96 % of control | [7] 93 % of control | [8] 89 % of control

COc1cccc(-c2cc3c(OC)ccc(OC)c3[nH]2)c1
inactive: [17] 99 % of control | [18] 89 % of control | [19] 99 % of control

C=C(Br)CN(CC)C(C)=O
inactive: [11] 108 % of control
